From paper PMC10804683, “Identification of the pyridoxal 5′‐phosphate allosteric site in human pyridox(am)ine 5′‐phosphate oxidase” (Protein Science : A Publication of the Protein Society, 2024)
Positions count from the first letter of the chain named. Entries after “also recorded” stand apart in the source; their conditions may differ.

Tests used:
[1] = target: T1, human PNPO F48A/E50L/R161C/R258L variant (holo-enzyme) (Homo sapiens, UniProt Q9NVS9, E50L/F48A/R161C/R258L); assay: PLP binding by fluorescence, F48A/E50L/R161C/R258L (35% FMN-saturated); conditions: text: titrated by exciting at 280 nm
T1 construct: a main form corresponding to the entire protein; made in house; host or cells: E. coli BL21(DE3)
T1 sequence (Q9NVS9 1-261 F48A/E50L/R161C/R258L): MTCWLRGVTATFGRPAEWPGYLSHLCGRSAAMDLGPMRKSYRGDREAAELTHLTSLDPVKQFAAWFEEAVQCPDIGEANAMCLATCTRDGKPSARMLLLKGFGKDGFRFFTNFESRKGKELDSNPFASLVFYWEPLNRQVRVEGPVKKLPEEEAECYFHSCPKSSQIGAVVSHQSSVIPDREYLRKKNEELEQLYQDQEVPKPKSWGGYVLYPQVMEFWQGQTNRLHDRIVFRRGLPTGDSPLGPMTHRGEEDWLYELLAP
From the text: PLP binding to PNPO can be detected and quantitatively measured using differential scanning fluorimetry (DSF) and also by measuring FMN fluorescence changes. We had previously attributed DSF changes to PLP binding at the active site, while FMN fluorescence changes were attributed to PLP binding at the allosteric site (Barile et al., [2019], [2020]). Previous experiments carried out with the PNPO R161C variant, affecting a residue that is essential for substrate binding and catalysis (and therefore also for PLP binding at the active site), confirms that DSF measurements only report PLP binding at the active site (Barile et al., [2021]; Table 1). […] We expected to observe no FMN fluorescence changes upon titration of the variants with PLP. However, this was not the case, and the dissociation constant values obtained by observing the FMN fluorescence emission were only up to threefold larger in the variants with respect to wild type PNPO (Figure 3). […] To check the second possibility, we measured intrinsic fluorescence changes of wild type and variant apo‐forms (i.e., without FMN) upon PLP titration. […]
Analyses of PLP binding, based on FMN fluorescence increase observed upon binding of PLP to PNPO, were performed as described in Barile et al. ([2020]). […] Emission spectra were recorded from […], with excitation and emission slits set at 3 and 5 nm, respectively. […]

[2] = target: T2, human PNPO F48A/E50L/R258L variant (Homo sapiens, UniProt Q9NVS9, E50L/F48A/R258L); assay: PLP inhibition kinetics of PNP oxidation, triple variant; type: biochemical; conditions: Na-HEPES pH 7.6, 2 μM enzyme, PLP 0–16 μM
T2 construct: a main form corresponding to the entire protein; made in house; host or cells: E. coli BL21(DE3)
T2 sequence (Q9NVS9 1-261 F48A/E50L/R258L): T1 sequence (Q9NVS9 1-261 F48A/E50L/R161C/R258L) with C161R
Description: This is a general inhibition mechanism that takes into account the possibility of PLP binding to both the active and allosteric sites. PLP binding at the active site gives a complete, competitive inhibition, whereas PLP binding at the allosteric site yields a substrate‐enzyme‐PLP ternary complex that is still catalytically active, although k CAT is reduced by a coefficient whose value is around 0.15. A thorough inhibition kinetic characterization was carried out with the wild type, F48A, F48A/E50L/R258L, and F48A/E50L/H248N/R258L PNPO forms, so as to evaluate the effect of the variations on the allosteric properties of the enzyme. The initial velocity of PNP conversion into PLP was measured in Na‐HEPES buffer (in which PLP is allowed to accumulate) by varying substrate concentration at different, fixed exogenous PLP concentrations, using 2 μM enzyme. A series of saturation curves were obtained that were used to fit the Michaelis–Menten equation (Figure 5), acquiring apparent V MAX and K M values as a function of PLP concentration. […]
FIGURE 5 Characterization of PLP inhibition. Upper panels: The initial velocity of the reaction was measured with 2 μM wild type (a), and the F48A (b), F48A/E50L/R258L (c), and F48A/E50L/H248N/R258L (d) PNPO variants, varying PNP concentration while keeping exogenous PLP fixed at different concentrations (0, 0.25, 0.5, 1, 2, 4, 8, and 16 μM). […]

type of inhibition of PNP oxidation by PLP [2]: pure competitive inhibition
SMILES: Cc1ncc(COP(=O)(O)O)c(C=O)c1O [PLP, pyridoxal 5′‐phosphate]
PLP binding KD^FLUO [1]: no variation in the emitted fluorescence was observed; also recorded: No binding
